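Dose response: 5 concentrations. Exposure: 48 h. Format: 96-well plates. Endpoint: linear interpolation; highest concentration if not reached. At the GI50, growth is halved.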 Active and inactive are the calls of the source. No stated cut-off is given here; in the data, active = GI50 up to about 1.1 µM and inactive = higher.
Tests used:
Experiment in all cases: NCI-60 cell line screen, 48 h
[1] = system: A549
[2] = system: CAKI-1
[3] = system: HL-60
[4] = system: HOP-62
[5] = system: IGROV-1
[6] = system: KM12
[7] = system: MCF7
[8] = system: MDA-N
[9] = system: NCI-H226
[10] = system: NCI-H460
[11] = system: RPMI-8226
[12] = system: RXF 393
[13] = system: SK-OV-3
[14] = system: SNB-19
[15] = system: T47D
[16] = system: U-251
[17] = system: LOX IMVI
[18] = system: Malme-3M
[19] = system: NCI-H522
[20] = system: HOP-92

| Structure (SMILES) | GI50 [1] | GI50 [2] | GI50 [3] | GI50 [4] | GI50 [5] | GI50 [6] | GI50 [7] | GI50 [8] | GI50 [9] | GI50 [10] | GI50 [11] | GI50 [12] | GI50 [13] | GI50 [14] | GI50 [15] | GI50 [16] | GI50 [17] | GI50 [18] | GI50 [19] | GI50 [20] |
| --- | --- | --- | --- | --- | --- | --- | --- | --- | --- | --- | --- | --- | --- | --- | --- | --- | --- | --- | --- | --- |
| COc1ccc(C(=O)/C=C/c2ccc(OCCSCCCCCCCCCCSCCOc3ccc(/C=C/C(=O)c4ccc(OC)cc4)cc3)cc2)cc1 | > 100 µM (inactive) | > 100 µM (inactive) | > 100 µM (inactive) | > 100 µM (inactive) | > 100 µM (inactive) | > 100 µM (inactive) | > 100 µM (inactive) | < 0.01 µM (active) | > 100 µM (inactive) | > 100 µM (inactive) | > 100 µM (inactive) | > 100 µM (inactive) | > 100 µM (inactive) | > 100 µM (inactive) | > 100 µM (inactive) | > 100 µM (inactive) | – | – | – | – |
| CC1=CCS(=O)(=O)C1C(O)C1=C(C)CCCC1(C)C (stereo unspecified) | 68.5 µM (inactive) | > 100 µM (inactive) | 35.3 µM (inactive) | > 100 µM (inactive) | > 100 µM (inactive) | 59.7 µM (inactive) | 50.8 µM (inactive) | 63.1 µM (inactive) | > 100 µM (inactive) | – | 14.3 µM (inactive) | > 100 µM (inactive) | > 100 µM (inactive) | > 100 µM (inactive) | 45.7 µM (inactive) | 56.8 µM (inactive) | 62.2 µM (inactive) | 60 µM (inactive) | 58.6 µM (inactive) | – |
| COC(=O)C1=C2SCc3cccc(c3)CSC3=C(C(=O)OC)SC(=C(S2)S1)S3 | > 100 µM (inactive) | > 100 µM (inactive) | 25.9 µM (inactive) | > 100 µM (inactive) | – | > 100 µM (inactive) | > 100 µM (inactive) | 35.2 µM (inactive) | > 100 µM (inactive) | > 100 µM (inactive) | > 100 µM (inactive) | > 100 µM (inactive) | > 100 µM (inactive) | > 100 µM (inactive) | > 100 µM (inactive) | 40.2 µM (inactive) | – | – | – | – |
| CN(C)CCn1nc(N)c2nc3cc(C(F)(F)F)ccc3nc21 | 58.2 µM (inactive) | 90.2 µM (inactive) | 34.6 µM (inactive) | 57.4 µM (inactive) | 41.5 µM (inactive) | > 100 µM (inactive) | > 100 µM (inactive) | > 100 µM (inactive) | 2.49 µM (inactive) | 51.4 µM (inactive) | > 100 µM (inactive) | 26.4 µM (inactive) | > 100 µM (inactive) | > 100 µM (inactive) | – | > 100 µM (inactive) | 54.8 µM (inactive) | > 100 µM (inactive) | 42 µM (inactive) | 79.4 µM (inactive) |
| Cc1ccc2[nH]c(=O)c(-c3cnc(O)nn3)c(O)c2c1 | 32 µM (inactive) | 55.3 µM (inactive) | > 100 µM (inactive) | > 100 µM (inactive) | > 100 µM (inactive) | > 100 µM (inactive) | 36.9 µM (inactive) | 17.7 µM (inactive) | > 100 µM (inactive) | > 100 µM (inactive) | 6.24 µM (inactive) | 17.2 µM (inactive) | > 100 µM (inactive) | – | 53.2 µM (inactive) | > 100 µM (inactive) | > 100 µM (inactive) | > 100 µM (inactive) | – | – |
| O=C(Cn1c(=O)ccn(C2OC(CO)C(O)C2F)c1=O)c1ccc(F)cc1 (stereo unspecified) | > 100 µM (inactive) | > 100 µM (inactive) | > 100 µM (inactive) | > 100 µM (inactive) | > 100 µM (inactive) | > 100 µM (inactive) | > 100 µM (inactive) | > 100 µM (inactive) | > 100 µM (inactive) | > 100 µM (inactive) | > 100 µM (inactive) | > 100 µM (inactive) | – | > 100 µM (inactive) | > 100 µM (inactive) | > 100 µM (inactive) | > 100 µM (inactive) | > 100 µM (inactive) | > 100 µM (inactive) | – |
| Cn1c2ccccc2n2c3ncccc3c(=S)c(C#N)c12 | > 100 µM (inactive) | > 100 µM (inactive) | > 100 µM (inactive) | > 100 µM (inactive) | > 100 µM (inactive) | > 100 µM (inactive) | > 100 µM (inactive) | > 100 µM (inactive) | > 100 µM (inactive) | 90.4 µM (inactive) | > 100 µM (inactive) | > 100 µM (inactive) | > 100 µM (inactive) | > 100 µM (inactive) | > 100 µM (inactive) | > 100 µM (inactive) | > 100 µM (inactive) | > 100 µM (inactive) | > 100 µM (inactive) | – |
| COCCCN1C(=O)C2c3[nH]c4ccccc4c3C3CCC(C(C)(C)C)CC3C2C1=O (stereo unspecified) | 32.6 µM (inactive) | 29.5 µM (inactive) | 23.4 µM (inactive) | 22.4 µM (inactive) | > 100 µM (inactive) | 20.7 µM (inactive) | 20.6 µM (inactive) | 35.6 µM (inactive) | 25.4 µM (inactive) | 18.7 µM (inactive) | 22.6 µM (inactive) | 21.3 µM (inactive) | > 100 µM (inactive) | 33 µM (inactive) | 48.4 µM (inactive) | 17.7 µM (inactive) | – | – | 21.7 µM (inactive) | – |
| Cc1cc2[nH]c3c(C#N)c(-c4ccccc4)c(/C=N/c4ccc(F)cc4)c(=O)n3c2cc1C | 49 µM (inactive) | > 100 µM (inactive) | – | > 100 µM (inactive) | > 100 µM (inactive) | 68.5 µM (inactive) | 86.9 µM (inactive) | 59.7 µM (inactive) | 69.7 µM (inactive) | > 100 µM (inactive) | > 100 µM (inactive) | 91.2 µM (inactive) | > 100 µM (inactive) | 0.513 µM (active) | 40.6 µM (inactive) | > 100 µM (inactive) | > 100 µM (inactive) | 76 µM (inactive) | 45.5 µM (inactive) | – |
| COc1ccc(C(=O)C(CC2C(=O)CC(C)(C)C(C(=O)C(=O)Nc3c(C)cccc3C)C2=O)c2ccc(OC)cc2)cc1 (stereo unspecified) | > 100 µM (inactive) | > 100 µM (inactive) | 96.6 µM (inactive) | > 100 µM (inactive) | > 100 µM (inactive) | > 100 µM (inactive) | > 100 µM (inactive) | > 100 µM (inactive) | > 100 µM (inactive) | > 100 µM (inactive) | – | > 100 µM (inactive) | > 100 µM (inactive) | > 100 µM (inactive) | – | > 100 µM (inactive) | > 100 µM (inactive) | – | > 100 µM (inactive) | > 100 µM (inactive) |
| CSC(SC)=C1C(=O)N(c2ccccc2)N=C1C | 30.8 µM (inactive) | 29 µM (inactive) | – | 35.4 µM (inactive) | 29.3 µM (inactive) | 41.1 µM (inactive) | 17.3 µM (inactive) | 34.8 µM (inactive) | 30.3 µM (inactive) | 23.9 µM (inactive) | – | 25 µM (inactive) | 29.2 µM (inactive) | 30.9 µM (inactive) | – | 35.1 µM (inactive) | 34 µM (inactive) | 21.7 µM (inactive) | 17.5 µM (inactive) | 2.75 µM (inactive) |
